US20260285850A1, “SUBSTITUTED OXAZOLIDINONES AND IMIDAZOLINONES AS HERBICIDES” (FMC CORPORATION, priority 2023, published 2026)

What was measured:
Type in all cases: in vivo
[1] = test system: barnyardgrass (Echinochloa crus-galli); test: Test A preemergence soil spray, visual injury rating 0-100; conditions: 10 days, 0 = no effect, 100 = complete control
From the text: (§1) Seeds of plant species selected from barnyardgrass (Echinochloa crus-galli), blackgrass (Alopecurus myosuroides), corn (Zea mays), foxtail, giant (giant foxtail, Setaria faberi), green foxtail (Setaria viridis), goosegrass (Eleusine indica), kochia (Bassia scoparia), oat, wild (wild oat, Avena fatua), palmer (palmer amaranth, palmer pigweed, Amaranthus palmeri), ragweed (common ragweed, Ambrosia artemisiifolia), ryegrass, Italian (italian ryegrass, Lolium multiflorum), soybean (Glycine max) and wheat (Triticum aestivum) were planted into a blend of loam soil and sand and treated preemergence with a directed soil spray using test chemicals formulated in a non-phytotoxic solvent mixture which included a surfactant.
(§2) At the same time, plants selected from these crops and weed species and also galium (catchweed bedstraw, Galium aparine) and horseweed (Erigeron canadensis) were planted in pots containing the same blend of loam soil and sand and treated with postemergence applications of test chemicals formulated in the same manner. Plants ranged in height from 2 to 10 cm and were in the one- to two-leaf stage for the postemergence treatment. Treated plants and untreated controls were maintained in a greenhouse for 10 days, after which time all treated plants were compared to untreated controls and visually evaluated for injury. Plant response ratings, summarized in Table A, are based on a 0 to 100 scale where 0 is no effect and 100 is complete control. A dash (-) response means no test result.

[2] = test system: blackgrass (Alopecurus myosuroides); test: as above; conditions: 10 days, 0 = no effect, 100 = complete control
From the text: as §1, §2

[3] = test system: corn (Zea mays); test: as above; conditions: 10 days, 0 = no effect, 100 = complete control
From the text: as §1, §2

[4] = test system: green foxtail (Setaria viridis); test: as above; conditions: 10 days, 0 = no effect, 100 = complete control
From the text: as §1, §2

[5] = test system: kochia (Bassia scoparia); test: as above; conditions: 10 days, 0 = no effect, 100 = complete control
From the text: as §1, §2

[6] = test system: oat, wild (wild oat, Avena fatua); test: as above; conditions: 10 days, 0 = no effect, 100 = complete control
From the text: as §1, §2

[7] = test system: palmer (palmer amaranth, palmer pigweed, Amaranthus palmeri); test: as above; conditions: 10 days, 0 = no effect, 100 = complete control
From the text: as §1, §2

[8] = test system: ragweed (common ragweed, Ambrosia artemisiifolia); test: as above; conditions: 10 days, 0 = no effect, 100 = complete control
From the text: as §1, §2

[9] = test system: ryegrass, Italian (italian ryegrass, Lolium multiflorum); test: as above; conditions: 10 days, 0 = no effect, 100 = complete control
From the text: as §1, §2

[10] = test system: soybean (Glycine max); test: as above; conditions: 10 days, 0 = no effect, 100 = complete control
From the text: as §1, §2

[11] = test system: wheat (Triticum aestivum); test: as above; conditions: 10 days, 0 = no effect, 100 = complete control
From the text: as §1, §2

[12] = test system: barnyardgrass (Echinochloa crus-galli); test: Test A postemergence application, visual injury rating 0-100; conditions: 10 days
From the text: as §1, §2

[13] = test system: blackgrass (Alopecurus myosuroides); test: as above; conditions: 10 days
From the text: as §1, §2

[14] = test system: corn (Zea mays); test: as above; conditions: 10 days
From the text: as §1, §2

[15] = test system: green foxtail (Setaria viridis); test: as above; conditions: 10 days
From the text: as §1, §2

[16] = test system: horseweed (Erigeron canadensis); test: as above; conditions: 10 days
From the text: as §1, §2

[17] = test system: kochia (Bassia scoparia); test: as above; conditions: 10 days
From the text: as §1, §2

[18] = test system: oat, wild (wild oat, Avena fatua); test: as above; conditions: 10 days
From the text: as §1, §2

[19] = test system: palmer (palmer amaranth, palmer pigweed, Amaranthus palmeri); test: as above; conditions: 10 days
From the text: as §1, §2

[20] = test system: ragweed (common ragweed, Ambrosia artemisiifolia); test: as above; conditions: 10 days
From the text: as §1, §2

[21] = test system: ryegrass, Italian (italian ryegrass, Lolium multiflorum); test: as above; conditions: 10 days
From the text: as §1, §2

[22] = test system: soybean (Glycine max); test: as above; conditions: 10 days
From the text: as §1, §2

[23] = test system: wheat (Triticum aestivum); test: as above; conditions: 10 days
From the text: as §1, §2

[24] = 31 g ai/ha, postemergence, 0 = no effect, 100 = complete control
[25] = Postemergence, 125 g ai/ha, 0 is no effect, 100 is complete control

`CONC(=O)C1CC(NC(=O)C2(C)CN(c3cc(F)cc(F)c3)C(=O)O2)CO1` (stereo not shown) [Compound 41] was tested, and the “Barnyardgrass plant response rating (0-100)” value ([1]; 31 g ai/ha) was 0, the “Barnyardgrass plant response rating (0 to 100 scale)” value ([1]; 125 g ai/ha) was 0 and the “Blackgrass plant response rating (0-100)” value ([2]; 31 g ai/ha) was 0. The “Blackgrass plant response rating (0 to 100 scale)” value ([2]; 125 g ai/ha) was 0, the “Corn plant response rating (0-100)” value ([3]; 31 g ai/ha) was 0 and the “Corn plant response rating (0 to 100 scale)” value ([3]; 125 g ai/ha) was 0. For the same compound, the “Foxtail, Green plant response rating (0-100)” value ([4]; 31 g ai/ha) was 0, the “Foxtail, Green plant response rating (0 to 100 scale)” value ([4]; 125 g ai/ha) was 0 and the “Kochia plant response rating (0-100)” value ([5]; 31 g ai/ha) was 0. For the same compound, the “Kochia plant response rating (0 to 100 scale)” value ([5]; 125 g ai/ha) was 0, the “Oat, Wild plant response rating (0-100)” value ([6]; 31 g ai/ha) was 0 and the “Oat, Wild plant response rating (0 to 100 scale)” value ([6]; 125 g ai/ha) was 0. For the same compound, the “Amaranth, Palmer plant response rating (0-100)” value ([7]; 31 g ai/ha) was 0, the “Amaranth, Palmer plant response rating (0 to 100 scale)” value ([7]; 125 g ai/ha) was 0 and the “Ragweed plant response rating (0-100)” value ([8]; 31 g ai/ha) was 0. For the same compound, the “Ragweed plant response rating (0 to 100 scale)” value ([8]; 125 g ai/ha) was 0, the “Ryegrass, Italian plant response rating (0-100)” value ([9]; 31 g ai/ha) was 0 and the “Ryegrass, Italian plant response rating (0 to 100 scale)” value ([9]; 125 g ai/ha) was 0. For the same compound, the “Soybean plant response rating (0-100)” value ([10]; 31 g ai/ha) was 0, the “Soybean plant response rating (0 to 100 scale)” value ([10]; 125 g ai/ha) was 0 and the “Wheat plant response rating (0-100)” value ([11]; 31 g ai/ha) was 0. The “Wheat plant response rating (0 to 100 scale)” value ([11]; 125 g ai/ha) was 0, the “Barnyardgrass plant response rating (0-100)” value [12, 24] was 0 and the “Barnyardgrass plant response rating (0 to 100 scale)” value [12, 25] was 30. The “Blackgrass plant response rating (0-100)” value [13, 24] was 0, the “Blackgrass plant response rating (0 to 100 scale)” value [13, 25] was 90 and the “Corn plant response rating (0-100)” value [14, 24] was 0. The “Corn plant response rating (0 to 100 scale)” value [14, 25] was 0, the “Foxtail, Green plant response rating (0-100)” value [15, 24] was 20 and the “Foxtail, Green plant response rating (0 to 100 scale)” value [15, 25] was 30. For the same compound, the “Horseweed plant response rating (0-100)” value [16, 24] was 0, the “Horseweed plant response rating (0 to 100 scale)” value [16, 25] was 0 and the “Kochia plant response rating (0-100)” value [17, 24] was 0. For the same compound, the “Kochia plant response rating (0 to 100 scale)” value [17, 25] was 0, the “Oat, Wild plant response rating (0-100)” value [18, 24] was 10 and the “Oat, Wild plant response rating (0 to 100 scale)” value [18, 25] was 40. The “Amaranth, Palmer plant response rating (0-100)” value [19, 24] was 0, the “Amaranth, Palmer / Pigweed, Palmer plant response rating (0 to 100 scale)” value [19, 25] was 0 and the “Ragweed plant response rating (0-100)” value [20, 24] was 0. The “Ragweed plant response rating (0 to 100 scale)” value [20, 25] was 0, the “Ryegrass, Italian plant response rating (0-100)” value [21, 24] was 0 and the “Ryegrass, Italian plant response rating (0 to 100 scale)” value [21, 25] was 50. The “Soybean plant response rating (0-100)” value [22, 24] was 0, the “Soybean plant response rating (0 to 100 scale)” value [22, 25] was 0 and the “Wheat plant response rating (0-100)” value [23, 24] was 20. The “Wheat plant response rating (0 to 100 scale)” value [23, 25] was 80.
